Results on 18 compounds are retold here after patent US12122778B2, “Activating pyruvate kinase R” (Novo Nordisk Health Care AG, priority 2018, dated 2024).

This assay deals with PKR(wt) (Homo sapiens, UniProt P30613). Briefly: Luminescence Biochemical Assay (Kinase Glo Plus), wild type PKR. Particulars: without FBP; for activation at 1.54 µM: 1.54 μM compound, read-out: AC50 LUM KGP woFBP % Fold@1.54 μM mean; for AC50: read-out: AC50 LUM KGP woFBP AC50 μM gmean; for Emax: read-out: AC50 LUM KGP woFBP MAX % FOLD mean. The protocol:
In some embodiments, a PKR Activating Compound can have: (1) an AC50 value of less than 0.1 μM (e.g., compounds with AC50 values of “+++” in Table 13), 0.1-1.0 μM (e.g., compounds with AC50 values of “++” in Table 13), or 1.01-40 μM (e.g., compounds with AC50 values of “+” in Table 13); (2) a MAX % Fold of 75%-250%, 250-500%, or 75%-500%; and/or (3) a % Fold@1.54 μM of 75%-250%, 250-500%, or 75%-500%. In some embodiments, a PKR Activating Compound has (1) an AC50 value of less than 1.0 μM; (2) a MAX % Fold of 75%-500%; and/or (3) a % Fold@1.54 μM of 75%-500%.
The phosphorylation of Adenosine-5′-diphosphate (ADP) by various mutants of PKR was determined by the Kinase Glo Plus Assay (Promega) in the presence or absence of FBP [D-Fructose-1,6-diphosphate; BOC Sciences, CAS: 81028-91-3] as follows. Unless otherwise indicated, all reagents were purchased from Sigma-Aldrich. All reagents were prepared in buffer containing 50 mM Tris-HCl, 100 mM KCl, 5 mM MgCl2, and 0.01% Triton X100, 0.03% BSA, and 1 mM DTT. Enzyme and PEP [Phospho(enol) pyruvic acid] were added at 2× to all wells of an assay-ready plate containing serial dilutions of test compounds or DMSO vehicle. Final enzyme concentrations for PKR(wt), PKR(R510Q), and PKR(G332S) were 0.8 nM, 0.8 nM, and 10 nM respectively. Final PEP concentration was 100 μM. The Enzyme/PEP mixture was incubated with compounds for 30 minutes at RT before the assay was initiated with the addition of 2×ADP [Adenosine-5′-diphosphate] and KinaseGloPlus. Final concentration of ADP was 100 μM. […] For assays containing FBP, that reagent is added at 30 μM upon reaction initiation. Reactions were allowed to progress for 45 minutes at RT until luminescence was recorded by the BMG PHERAstar FS Multilabel Reader. All compounds were tested in triplicate at concentrations ranging from 42.5 μM to 2.2 nM in 0.83% DMSO.
Luminescence values were converted to % Fold increase by normalizing to the average of the DMSO control and multiplying by 100. Max, min, slope and AC50 were determined by the standard four parameter fit algorithm of ActivityBase XE Runner. Compounds were evaluated with three parameters—AC50, MAX % Fold, and % Fold@1.54 μM (FIG. 1). The AC50 value for a compound is the concentration (μM) corresponding to the midway between the maximum and minimum values of the four parameter logistic curve fit (i.e., at which the % fold increase along the four parameter logistic curve fit is halfway between MAX % Fold and MIN % Fold (% Fold Midpoint)), MAX % Fold is the highest fold increase observed at any concentration of compound, and % Fold@1.54 μM is the fold increase at a compound concentration of 1.54 μM. The parameter % Fold@1.54 μM was selected to capture elements of both the AC50 and MAX % Fold and to provide a ranking based on both potency and effect. The compound concentration of 1.54 μM was chosen as one that can optimally differentiate the set of compounds based on the range of activities observed.
As set forth in Table 13 below, AC50 values (columns A, D, G) are defined as follows: ≤0.1 μM (+++); >0.1 μM and ≤1.0 μM (++); >1.0 μM and ≤40 μM (+); >40 μM (0). Max % FOLD values (columns B, E, H) are defined as follows: ≤75% (+); >75% and ≤250% (++); >250% and ≤500% (+++). % Fold@1.54 μM values (columns C, F, J) are defined as follows: ≤75% (+); >75% and ≤250% (++); >250% and ≤50000 (+++).

PKR(wt), sequence (P30613 whole entry): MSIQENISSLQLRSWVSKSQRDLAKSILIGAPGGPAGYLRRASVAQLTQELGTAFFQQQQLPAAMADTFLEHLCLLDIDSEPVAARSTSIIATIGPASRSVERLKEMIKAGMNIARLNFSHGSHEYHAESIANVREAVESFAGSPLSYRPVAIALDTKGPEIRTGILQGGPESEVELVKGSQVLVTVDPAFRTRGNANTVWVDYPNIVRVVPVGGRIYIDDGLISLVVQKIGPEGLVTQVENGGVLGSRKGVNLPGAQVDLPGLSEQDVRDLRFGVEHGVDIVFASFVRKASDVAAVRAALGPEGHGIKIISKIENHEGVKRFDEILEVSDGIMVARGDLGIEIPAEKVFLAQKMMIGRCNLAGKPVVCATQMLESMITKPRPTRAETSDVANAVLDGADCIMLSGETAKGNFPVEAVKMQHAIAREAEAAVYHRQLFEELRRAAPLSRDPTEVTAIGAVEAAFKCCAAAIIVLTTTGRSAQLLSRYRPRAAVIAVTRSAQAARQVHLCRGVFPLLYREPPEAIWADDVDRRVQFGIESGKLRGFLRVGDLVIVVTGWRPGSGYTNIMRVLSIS

As usually defined, the AC50 is the concentration at which the activity in the assay is half-maximal. With `CS(=O)(=O)NCC(=O)N1CC2=C(C1)CN(S(=O)(=O)c1ccc3occc3c1)C2` [Example 1-1, N-(2-(5-(benzofuran-5-ylsulfonyl)-3,4,5,6-tetrahydropyrrolo[3,4-c]pyrrol-2(1H)-yl)-2-oxoethyl)methanesulfonamide], the activation at 1.54 µM lay within 75 to 250%, the AC50 was in the range of 0.1 to 1 µM and the Emax was 75 to 250%.
In the case of `O=C(CCC(F)F)N1CC2=C(C1)CN(S(=O)(=O)c1ccc3occc3c1)C2` [Example 1-2, 1-(5-(Benzofuran-5-ylsulfonyl)-3,4,5,6-tetrahydropyrrolo[3,4-c]pyrrol-2(1H)-yl)-4,4-difluorobutan-1-one], the activation at 1.54 µM is 75 to 250%, the AC50 lay in the range of 0.1 to 1 µM and the Emax lay within 250 to 500%.
Take `CC(C)(O)C(=O)N1CC2=C(C1)CN(S(=O)(=O)c1ccc3occc3c1)C2` [Example 1-3, 1-(5-(Benzofuran-5-ylsulfonyl)-3,4,5,6-tetrahydropyrrolo[3,4-c]pyrrol-2(1H)-yl)-2-hydroxy-2-methylpropan-1-one]: the activation at 1.54 µM was in the range of 75 to 250%, the AC50 lay in the range of 0.1 to 1 µM and the Emax is 250 to 500%.
For `O=C(N1CC2=C(C1)CN(S(=O)(=O)c1ccc3occc3c1)C2)C1(O)CC1` [Example 1-4, (5-(Benzofuran-5-ylsulfonyl)-3,4,5,6-tetrahydropyrrolo[3,4-c]pyrrol-2(1H)-yl)(1-hydroxycyclopropyl)methanone], in that order: 75 to 250%, 0.1 to 1 µM and 250 to 500%.
On to `CN(C)CCC(=O)N1CC2=C(C1)CN(S(=O)(=O)c1ccc3occc3c1)C2` [Example 1-5, 1-(5-(Benzofuran-5-ylsulfonyl)-3,4,5,6-tetrahydropyrrolo[3,4-c]pyrrol-2(1H)-yl)-3-(dimethylamino)propan-1-one], for which the activation at 1.54 µM lay within 75 to 250%, the half-maximal activity concentration (AC50) is 1 to 40 µM and the Emax is 75 to 250%.
Take `NCC1(C(=O)N2CC3=C(C2)CN(S(=O)(=O)c2ccc4occc4c2)C3)CC1` [Example 2-1, (1-(Aminomethyl)cyclopropyl)(5-(benzofuran-5-ylsulfonyl)-3,4,5,6-tetrahydropyrrolo[3,4-c]pyrrol-2(1H)-yl)methanone]: the activation at 1.54 µM lay in the range of 75 to 250%, the concentration at half-maximal activity (AC50) lay in the range of 1 to 40 µM and the Emax lay within 75 to 250%.
As for `O=C(NCC1CCCO1)N1CC2=C(C1)CN(S(=O)(=O)c1ccc3occc3c1)C2` (stereo not drawn) [Example 3-1, 5-(Benzofuran-5-ylsulfonyl)-N-((tetrahydrofuran-2-yl)methyl)-3,4,5,6-tetrahydropyrrolo[3,4-c]pyrrole-2(1H)-carboxamide], the activation at 1.54 µM was in the range of 75 to 250%, the concentration at half-maximal activity (AC50) lay in the range of 0.1 to 1 µM and the Emax was in the range of 75 to 250%.
Take `O=C(NC1CCOC1)N1CC2=C(C1)CN(S(=O)(=O)c1ccc3occc3c1)C2` (stereo not drawn) [Example 3-2, 5-(Benzofuran-5-ylsulfonyl)-N-(tetrahydrofuran-3-yl)-3,4,5,6-tetrahydropyrrolo[3,4-c]pyrrole-2(1H)-carboxamide]: the activation at 1.54 µM lay in the range of 75 to 250%, the AC50 is 0.1 to 1 µM and the Emax lay in the range of 250 to 500%.
As for `COC[C@@H](C)NC(=O)N1CC2=C(C1)CN(S(=O)(=O)c1ccc3occc3c1)C2` [Example 3-3, (R)-5-(benzofuran-5-ylsulfonyl)-N-(1-methoxypropan-2-yl)-3,4,5,6-tetrahydropyrrolo[3,4-c]pyrrole-2(1H)-carboxamide], the activation at 1.54 µM was in the range of 75 to 250%, the AC50 lay in the range of 1 to 40 µM and the Emax was in the range of 75 to 250%.
As for `O=C(NCc1cccnc1)N1CC2=C(C1)CN(S(=O)(=O)c1ccc3occc3c1)C2` [Example 3-4, 5-(Benzofuran-5-ylsulfonyl)-N-(pyridin-3-ylmethyl)-3,4,5,6-tetrahydropyrrolo[3,4-c]pyrrole-2(1H)-carboxamide], the activation at 1.54 µM is 75 to 250%, the AC50 was in the range of 0.1 to 1 µM and the Emax lay in the range of 75 to 250%.
Consider `O=C(NCC1CCOC1)N1CC2=C(C1)CN(S(=O)(=O)c1ccc3occc3c1)C2` (stereo not drawn) [Example 3-5, 5-(Benzofuran-5-ylsulfonyl)-N-((tetrahydrofuran-3-yl)methyl)-3,4,5,6-tetrahydropyrrolo[3,4-c]pyrrole-2(1H)-carboxamide], for which the activation at 1.54 µM lay in the range of 75 to 250%, the AC50 fell in the range of 1 to 40 µM and the Emax was 75 to 250%.
As to `NS(=O)(=O)c1ccc(S(=O)(=O)N2CC3=C(CN(C(=O)[C@H](O)c4ccccc4)C3)C2)cc1` [Example 13-1, (R)-4-((5-(2-hydroxy-2-phenylacetyl)-3,4,5,6-tetrahydropyrrolo[3,4-c]pyrrol-2(1H)-yl)sulfonyl)benzenesulfonamide], the activation at 1.54 µM fell in the range of 75 to 250%, the concentration at half-maximal activity (AC50) lay in the range of 1 to 40 µM and the Emax was in the range of 75 to 250%.
Take `O=C([C@H](O)c1ccccc1)N1CC2=C(C1)CN(S(=O)(=O)c1ccccc1OC(F)(F)F)C2` [Example 18-46, (2R)-2-hydroxy-2-phenyl-1-{5-[2-(trifluoromethoxy)benzenesulfonyl]-1H,2H,3H,4H,5H,6H-pyrrolo[3,4-c]pyrrol-2-yl}ethan-1-one]: the activation at 1.54 µM fell in the range of 75 to 250%, the AC50 lay in the range of 1 to 40 µM and the Emax was in the range of 75 to 250%.
For the compound `O=C([C@H](O)c1ccccc1)N1CC2=C(C1)CN(S(=O)(=O)c1cc(F)ccc1Cl)C2` [Example 18-57, (2R)-1-[5-(2-chloro-5-fluorobenzenesulfonyl)-1H,2H,3H,4H,5H,6H-pyrrolo[3,4-c]pyrrol-2-yl]-2-hydroxy-2-phenylethan-1-one], the activation at 1.54 µM lay within 75 to 250%, the AC50 is 0.1 to 1 µM and the Emax was 75 to 250%.
Regarding `CC[C@H](O)C(=O)N1CC2=C(C1)CN(S(=O)(=O)c1ccc3c(c1)N(C)CCO3)C2` [Example 18-75, (2S)-2-hydroxy-1-{5-[(4-methyl-3,4-dihydro-2H-1,4-benzoxazin-6-yl)sulfonyl]-1H,2H,3H,4H,5H,6H-pyrrolo[3,4-c]pyrrol-2-yl}butan-1-one], the activation at 1.54 µM lay in the range of 75 to 250%, the AC50 fell in the range of 1 to 40 µM and the Emax was in the range of 75 to 250%.
On to `CN1CCOc2ccc(S(=O)(=O)N3CC4=C(CN(C(=O)[C@@H]5CCCO5)C4)C3)cc21` [Example 18-77, 4-Methyl-6-({5-[(2S)-oxolane-2-carbonyl]-1H,2H,3H,4H,5H,6H-pyrrolo[3,4-c]pyrrol-2-yl}sulfonyl)-3,4-dihydro-2H-1,4-benzoxazine], for which the activation at 1.54 µM fell in the range of 75 to 250%, the AC50 was 1 to 40 µM and the Emax was in the range of 75 to 250%.
Regarding `CN1CCOc2ccc(S(=O)(=O)N3CC4=C(CN(C(=O)C5CCCC5)C4)C3)cc21` [Example 18-78, 6-({5-Cyclopentanecarbonyl-1H,2H,3H,4H,5H,6H-pyrrolo[3,4-c]pyrrol-2-yl}sulfonyl)-4-methyl-3,4-dihydro-2H-1,4-benzoxazine], the activation at 1.54 µM was in the range of 75 to 250%, the concentration at half-maximal activity (AC50) was in the range of 1 to 40 µM and the Emax lay in the range of 75 to 250%.
Take `O=C(c1csc(Nc2cccnc2)n1)N1CC2=C(C1)CN(S(=O)(=O)c1ccc3occc3c1)C2` [Example 18-79, N-{4-[5-(1-benzofuran-5-sulfonyl)-1H,2H,3H,4H,5H,6H-pyrrolo[3,4-c]pyrrole-2-carbonyl]-1,3-thiazol-2-yl}pyridin-3-amine]: the activation at 1.54 µM fell in the range of 250 to 50000%, the AC50 lay in the range of 0.1 to 1 µM and the Emax lay in the range of 250 to 500%.
